The source of these data is patent US20240199623A1 (ILDONG PHARMACEUTICAL CO., LTD., priority 2020, published 2024).

≈ marks a conversion by molar mass, not a printed value.

Data set [1] can be described thus: Phosphate-buffered saline (PBS) solubility of compounds. The class given is physicochemical. The following applies: aqueous buffer, thermodynamic from solid, PBS pH 7.5, 0.5 mg/mL, vortexed 90 min, filtered, LC-MS/MS, read-out: Solubility Range. As for the experimental part: PBS solutions (pH 7.5) were prepared according to the following compositions and stored at 4° C. Test compounds were dissolved in PBS (pH 7.5) at 0.5 mg/mL and vortexed for 90 min. The PBS solution was sequentially filtered through a 0.45, 1.2, […] syringe filter. Concentration of test compounds were determined using LC-MS/MS with appropriate dilution of the samples.

Data set [2] deals with T1, Human recombinant PDE4A1A (Homo sapiens, UniProt P27815).
T1 construct: purchased BPS Bioscience; host or cells: insect Sf9 cells
In words: Human phosphodiesterase 4 (PDE4) inhibition, PDE4A1A. The following applies: read-out: % inhibition range at 10 uM PDE4A1A; 10 uM test compound. The format is biochemical. On the procedure:
(§1) […] Human recombinant PDE4A1A, PDE4B 1, PDE4C1 and PDE4D2 are respectively expressed in each host cell (insect Sf9 cells, BPS Bioscience). Preincubation of 10 μM test compounds or vehicle was proceeded with 20 ng/ml PDE4A1A or 4 ng/ml PDE4B 1 or 8 ng/ml PDE4C1 or 5 ng/ml PDE4D2 enzyme in Tris-HCl buffer pH 7.2 for 15 minutes at 25° C. 100 nM fluorescein (FAM) labeled cAMP for another 30 minutes incubation period was added in order to initiate the enzymatic reaction and addition of IMAP binding solution was followed for its termination. Specifically, IMAP complexes with phosphate groups on nucleotide monophosphate generated from cyclic nucleotides through PDE activity. The amount of complex formed is determined by reading spectrofluorimetrical signal at 470 nm/525 nm.

Data set [3] addresses T2, Human recombinant PDE4B 1 (Homo sapiens, UniProt Q07343).
T2 construct: purchased BPS Bioscience; host or cells: insect Sf9 cells
In words: Human phosphodiesterase 4 (PDE4) inhibition, PDE4B 1. The following applies: read-out: % inhibition range at 10 uM PDE4B1; 10 uM test compound. The class given is biochemical. As for the experimental part:
as §1

Another data set concerns the target T3, Human recombinant PDE4C1 (Homo sapiens, UniProt Q08493).
T3 construct: purchased BPS Bioscience; host or cells: insect Sf9 cells
Briefly: Human phosphodiesterase 4 (PDE4) inhibition, PDE4C1. The following applies: read-out: % inhibition range at 10 uM PDE4C1; 10 uM test compound. The class given is biochemical. On the procedure:
as §1

For the next data set, the target named is T4, Human recombinant PDE4D2 (Homo sapiens, UniProt Q08499).
T4 construct: purchased BPS Bioscience; host or cells: insect Sf9 cells
In words: Human phosphodiesterase 4 (PDE4) inhibition, PDE4D2. The class given is biochemical. The following applies: read-out: % inhibition range at 10 uM PDE4D2; 10 uM test compound. On the procedure: as §1

Data set [4] deals with T5, human wild type-CFTR (Homo sapiens, UniProt P13569). In words: Short-circuit current measurement. Details: expressed in transfected cells. The class given is cell-based. The following applies: FRT cells expressing human wild type-CFTR; Forskolin 20 μM signal used as 100% activity; read-out: Short-circuit current measurement (EC50) Concentration range. The procedure, abridged: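 Ussing-chamber short-circuit current in FRT cells expressing human wild-type CFTR, grown on Snapwell inserts. Forskolin, test compounds and CFTRinh-172 added to both apical and basolateral baths; apical membrane current and Isc sampled at 4 Hz.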

Data set [5] deals with T5, human wild type-CFTR. In words: Cell-based YFP assay. The following applies: CHO-K1 cells expressing human wild type-CFTR and YFP-H148Q/I152L; forskolin 20 μM = 100% activity; read-out: Cell-based YFP Assay (EC50) Concentration Range. Details: expressed in transfected cells; host or cells: CHO-K1 (Chinese hamster ovary). In a few lines: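 CHO-K1 cells co-expressing human wild-type CFTR and YFP-H148Q/I152L halide sensor, grown 48 h at 37 °C, then in PBS. YFP quenching by I⁻ influx read at 37 °C after adding 140 mM I⁻ solution, sampled every 0.4 s for 14 s. Triplicates averaged; EC50 fitted.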

T2 sequence (Q07343 whole entry): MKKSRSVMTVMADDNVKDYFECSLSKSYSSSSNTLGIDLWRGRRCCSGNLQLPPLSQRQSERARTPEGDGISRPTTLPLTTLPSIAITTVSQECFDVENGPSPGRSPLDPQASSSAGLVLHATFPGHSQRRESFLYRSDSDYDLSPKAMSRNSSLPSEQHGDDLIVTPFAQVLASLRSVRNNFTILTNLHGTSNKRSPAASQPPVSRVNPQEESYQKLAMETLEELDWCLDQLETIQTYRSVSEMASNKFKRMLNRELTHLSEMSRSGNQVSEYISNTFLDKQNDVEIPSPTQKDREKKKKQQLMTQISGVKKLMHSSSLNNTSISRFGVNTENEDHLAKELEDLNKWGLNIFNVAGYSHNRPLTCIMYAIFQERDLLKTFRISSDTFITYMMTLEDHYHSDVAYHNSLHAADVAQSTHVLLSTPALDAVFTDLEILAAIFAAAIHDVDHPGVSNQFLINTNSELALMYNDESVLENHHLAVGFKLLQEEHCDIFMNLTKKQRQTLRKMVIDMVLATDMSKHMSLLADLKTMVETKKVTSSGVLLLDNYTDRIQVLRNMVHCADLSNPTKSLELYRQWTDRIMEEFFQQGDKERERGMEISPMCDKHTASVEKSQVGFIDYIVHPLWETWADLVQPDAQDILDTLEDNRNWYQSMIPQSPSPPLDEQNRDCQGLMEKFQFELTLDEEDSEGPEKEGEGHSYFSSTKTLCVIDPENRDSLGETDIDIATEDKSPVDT
T4 sequence (Q08499 303-809 limits assumed): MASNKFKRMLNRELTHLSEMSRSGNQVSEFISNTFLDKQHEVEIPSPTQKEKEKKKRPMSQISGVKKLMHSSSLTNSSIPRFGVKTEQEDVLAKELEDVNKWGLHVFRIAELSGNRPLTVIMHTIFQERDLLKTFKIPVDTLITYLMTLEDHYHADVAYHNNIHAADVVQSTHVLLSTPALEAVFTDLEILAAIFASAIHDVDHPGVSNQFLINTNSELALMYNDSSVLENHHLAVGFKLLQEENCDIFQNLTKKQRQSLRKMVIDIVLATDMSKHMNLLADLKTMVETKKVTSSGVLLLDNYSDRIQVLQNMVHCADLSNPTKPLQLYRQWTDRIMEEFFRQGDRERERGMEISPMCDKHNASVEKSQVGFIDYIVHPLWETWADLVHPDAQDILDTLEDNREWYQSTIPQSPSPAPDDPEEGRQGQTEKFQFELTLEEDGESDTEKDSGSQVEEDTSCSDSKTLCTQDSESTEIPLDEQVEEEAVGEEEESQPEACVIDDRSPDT
T1 sequence (P27815 1-647 isoform P27815-4): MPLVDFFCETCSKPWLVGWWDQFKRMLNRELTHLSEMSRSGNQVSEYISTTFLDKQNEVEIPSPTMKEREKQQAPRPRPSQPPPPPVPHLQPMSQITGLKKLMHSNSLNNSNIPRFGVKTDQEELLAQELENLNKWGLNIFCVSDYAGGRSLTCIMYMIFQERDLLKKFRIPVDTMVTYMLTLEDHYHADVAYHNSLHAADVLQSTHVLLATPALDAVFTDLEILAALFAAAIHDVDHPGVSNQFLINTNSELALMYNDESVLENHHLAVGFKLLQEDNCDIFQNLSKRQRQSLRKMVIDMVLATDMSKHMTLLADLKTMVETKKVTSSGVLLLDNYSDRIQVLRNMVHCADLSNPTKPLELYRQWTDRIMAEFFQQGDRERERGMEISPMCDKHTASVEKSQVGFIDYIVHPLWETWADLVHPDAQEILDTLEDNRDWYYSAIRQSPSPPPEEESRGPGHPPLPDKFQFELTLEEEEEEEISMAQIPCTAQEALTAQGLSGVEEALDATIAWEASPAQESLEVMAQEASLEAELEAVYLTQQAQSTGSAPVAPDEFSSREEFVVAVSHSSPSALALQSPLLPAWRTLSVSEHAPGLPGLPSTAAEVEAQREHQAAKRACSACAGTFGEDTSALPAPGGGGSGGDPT
T3 sequence (Q08493 whole entry): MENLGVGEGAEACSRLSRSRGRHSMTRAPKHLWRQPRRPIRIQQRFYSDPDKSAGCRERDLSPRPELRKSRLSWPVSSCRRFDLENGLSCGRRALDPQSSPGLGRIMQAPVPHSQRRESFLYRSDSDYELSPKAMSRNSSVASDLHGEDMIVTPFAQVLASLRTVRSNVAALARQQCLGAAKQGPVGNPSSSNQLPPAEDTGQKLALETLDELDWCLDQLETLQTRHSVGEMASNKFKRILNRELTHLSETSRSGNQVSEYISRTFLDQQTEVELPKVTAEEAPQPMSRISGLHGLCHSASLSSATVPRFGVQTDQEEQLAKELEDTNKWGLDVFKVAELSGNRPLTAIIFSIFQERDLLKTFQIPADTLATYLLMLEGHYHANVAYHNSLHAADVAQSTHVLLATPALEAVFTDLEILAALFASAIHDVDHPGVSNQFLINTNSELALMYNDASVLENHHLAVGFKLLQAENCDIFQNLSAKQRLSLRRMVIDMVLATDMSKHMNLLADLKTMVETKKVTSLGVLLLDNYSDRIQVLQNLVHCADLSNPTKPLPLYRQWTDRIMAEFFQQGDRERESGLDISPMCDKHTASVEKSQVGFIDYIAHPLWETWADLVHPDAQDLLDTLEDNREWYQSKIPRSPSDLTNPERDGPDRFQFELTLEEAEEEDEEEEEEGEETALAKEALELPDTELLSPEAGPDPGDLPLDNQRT
T5 sequence (P13569 whole entry): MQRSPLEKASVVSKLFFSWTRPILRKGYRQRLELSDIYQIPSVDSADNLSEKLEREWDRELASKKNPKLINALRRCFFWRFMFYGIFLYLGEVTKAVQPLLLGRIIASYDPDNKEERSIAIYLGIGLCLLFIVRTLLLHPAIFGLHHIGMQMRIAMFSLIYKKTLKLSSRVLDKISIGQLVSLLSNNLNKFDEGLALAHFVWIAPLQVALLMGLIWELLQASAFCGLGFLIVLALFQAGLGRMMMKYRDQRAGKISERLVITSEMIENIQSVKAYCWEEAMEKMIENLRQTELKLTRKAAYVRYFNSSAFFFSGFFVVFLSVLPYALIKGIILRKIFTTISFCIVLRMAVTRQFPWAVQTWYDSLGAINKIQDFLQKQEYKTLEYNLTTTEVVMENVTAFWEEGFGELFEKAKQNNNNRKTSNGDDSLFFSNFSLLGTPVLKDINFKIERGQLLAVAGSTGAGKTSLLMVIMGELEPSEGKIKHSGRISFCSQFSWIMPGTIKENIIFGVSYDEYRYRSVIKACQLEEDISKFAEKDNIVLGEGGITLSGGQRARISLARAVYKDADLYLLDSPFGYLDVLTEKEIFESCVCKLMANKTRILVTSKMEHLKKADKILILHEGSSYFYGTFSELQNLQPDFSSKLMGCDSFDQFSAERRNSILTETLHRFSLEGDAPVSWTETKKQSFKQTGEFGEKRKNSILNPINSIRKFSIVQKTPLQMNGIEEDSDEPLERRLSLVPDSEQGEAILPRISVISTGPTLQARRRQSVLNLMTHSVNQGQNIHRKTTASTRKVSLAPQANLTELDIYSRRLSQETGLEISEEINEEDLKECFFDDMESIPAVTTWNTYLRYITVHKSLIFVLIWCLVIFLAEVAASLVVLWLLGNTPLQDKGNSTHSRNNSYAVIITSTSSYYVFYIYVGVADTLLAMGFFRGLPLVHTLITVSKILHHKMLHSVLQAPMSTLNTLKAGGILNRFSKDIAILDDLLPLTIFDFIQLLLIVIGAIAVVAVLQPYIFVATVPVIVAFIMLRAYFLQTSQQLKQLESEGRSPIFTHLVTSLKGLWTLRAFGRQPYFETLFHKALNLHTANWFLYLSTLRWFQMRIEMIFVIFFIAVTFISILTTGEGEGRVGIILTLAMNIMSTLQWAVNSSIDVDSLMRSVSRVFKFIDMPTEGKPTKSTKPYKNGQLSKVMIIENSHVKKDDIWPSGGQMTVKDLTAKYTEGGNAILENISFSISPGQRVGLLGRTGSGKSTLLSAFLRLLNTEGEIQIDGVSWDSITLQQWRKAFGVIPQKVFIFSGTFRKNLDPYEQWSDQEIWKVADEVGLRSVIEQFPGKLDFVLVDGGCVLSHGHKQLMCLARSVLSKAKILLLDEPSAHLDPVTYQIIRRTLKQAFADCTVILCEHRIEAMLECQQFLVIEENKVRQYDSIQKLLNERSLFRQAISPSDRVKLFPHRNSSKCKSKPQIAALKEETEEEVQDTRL

Regarding `COC(=O)c1ccccc1NC(=O)c1cc2nccc(-c3ccc(OC)c(OC)c3)n2n1` [Compound 7, methyl 2-(7-(3,4-dimethoxyphenyl)pyrazolo [1,5-a]pyrimidine-2-carboxamido)benzoate], in data set [1], the solubility (usually the dissolved amount per volume that the medium holds) at 90 min is below 0.1 µg/mL. Also, the inhibition at 10 µM (in data set [2]; in data set [3]; on Human recombinant PDE4C1; at Human recombinant PDE4D2) was below 50% throughout.

As to `COc1ccc(-c2ccnc3cc(C(=O)N[C@H]4CC[C@H](C(=O)OC)CC4)nn23)cc1OC` [Compound 10, methyl (1r,4r)-4-(7-(3,4-dimethoxyphenyl)pyrazolo[1,5-a]pyrimidine-2-carboxamido)cyclohexane-1-carboxylate], the solubility at 90 min in data set [1] was 0.1 to 10 µg/mL (≈ 0.228 to 22.8 µM). The inhibition at 10 µM (in data set [2]; in data set [3]; at Human recombinant PDE4C1; at Human recombinant PDE4D2) was above 80% each time.

On to `COc1ccc(-c2ccnc3cc(C(=O)Nc4ccc(C(=O)N5CCOCC5)cc4)nn23)cc1OC` [Compound 41, 7-(3,4-dimethoxyphenyl)-N-(4-(morpholine-4-carbonyl)phenyl)pyrazolo [1,5-a]pyrimidine-2-carboxamide], for which, in data set [1], the solubility at 90 min is below 0.1 µg/mL. Moreover, the inhibition at 10 µM (in data set [2]; in data set [3]; on Human recombinant PDE4C1; at Human recombinant PDE4D2) was above 80% in each case.

Take `COc1ccc(-c2ccnc3cc(NC(=O)Nc4ccc(C(=O)N5CCOCC5)cc4)nn23)cc1OC` [Compound 129, 1-(7-(3,4-dimethoxyphenyl)pyrazolo[1,5-a]pyrimidin-2-yl)-3-(4-(morpholine-4-carbonyl)phenyl)urea]: the inhibition at 10 µM (in data set [2]; in data set [3]; on Human recombinant PDE4C1; on Human recombinant PDE4D2) was above 80% throughout. Besides, the EC50 on human wild type-CFTR [4] is at least 2000 nM; on human wild type-CFTR [5], 200 to 2000 nM.

In the case of `COC(=O)c1ccc(NC(=O)c2cc3nccc(-c4ccc(OC)c(OC)c4)n3n2)c(F)c1` [Compound 136, methyl 4-(7-(3,4-dimethoxyphenyl)pyrazolo[1,5-a]pyrimidine-2-carboxamido)-3-fluorobenzoate], the solubility at 90 min in data set [1] was below 0.1 µg/mL. The inhibition at 10 µM (in data set [2]; in data set [3]; at Human recombinant PDE4C1; on Human recombinant PDE4D2) was above 80% each time.

For the compound `COC(=O)c1ccc(NC(=O)c2cc3nccc(-c4ccc(OC)c(OC)c4)n3n2)cc1OC` [Compound 192, methyl 4-(7-(3,4-dimethoxyphenyl)pyrazolo [1,5-a]pyrimidine-2-carboxamido)-2-methoxybenzoate], the inhibition at 10 µM (in data set [2]; in data set [3]; at Human recombinant PDE4C1; on Human recombinant PDE4D2) was above 80% each time. Besides, at human wild type-CFTR [5], the EC50 was below 200 nM.

`COc1ccc(-c2ccnc3cc(C(=O)Nc4ccc(N5CCOCC5)cc4)nn23)cc1OC` [Compound 194, 7-(3,4-dimethoxyphenyl)-N-(4-morpholinophenyl)pyrazolo [1,5-a]pyrimidine-2-carboxamide]: the inhibition at 10 µM (in data set [2]; in data set [3]; on Human recombinant PDE4C1; on Human recombinant PDE4D2) was above 80% throughout. Besides, the EC50 at human wild type-CFTR [5] is below 200 nM.

For `COc1ccc(-c2ccnc3cc(C(=O)Nc4ccc(OCCN5CCOCC5)cc4)nn23)cc1OC` [Compound 198, 7-(3,4-dimethoxyphenyl)-N-(4-(2-morpholinoethoxy)phenyl)pyrazolo[1,5-a]pyrimidine-2-carboxamide], the inhibition at 10 µM (in data set [2]; in data set [3]; at Human recombinant PDE4C1; on Human recombinant PDE4D2) was above 80% throughout. The EC50 on human wild type-CFTR [4] and at human wild type-CFTR [5] was below 200 nM each time.

As to `COc1ccc(-c2ccnc3cc(C(=O)N4CCN(C(=O)c5ccccc5)[C@@H](C)C4)nn23)cc1OC` [Compound 210, (S)-(4-benzoyl-3-methylpiperazin-1-yl)(7-(3,4-dimethoxyphenyl)pyrazolo[1,5-a]pyrimidin-2-yl)methanone], the solubility at 90 min in data set [1] lay in the range of 0.1 to 10 µg/mL (≈ 0.206 to 20.6 µM). In addition, the inhibition at 10 µM (in data set [2]; in data set [3]; on Human recombinant PDE4C1; at Human recombinant PDE4D2) was above 80% in each case.

As to `COC(=O)c1ccc(NC(=O)c2cc3ncc(-c4ccc(OC)c(OC)c4)cn3n2)cc1` [Compound 239, methyl 4-(6-(3,4-dimethoxyphenyl)pyrazolo[1,5-a]pyrimidine-2-carboxamido)benzoate], the inhibition at 10 µM (in data set [2]; in data set [3]; at Human recombinant PDE4C1; on Human recombinant PDE4D2) was below 50% in each case. The EC50 on human wild type-CFTR [5] was at least 2000 nM.

As for `CCOc1ccc(C(=O)Nc2cc3nccc(-c4ccc(OC)c(OC)c4)n3n2)cc1` [Compound 287, N-(7-(3,4-dimethoxyphenyl)pyrazolo[1,5-a]pyrimidin-2-yl)-4-ethoxybenzamide], the inhibition (usually the percentage by which the read-out fell short of the control) at 10 µM in data set [2] is 50 to 80%; in data set [3] it was 50 to 80%; at Human recombinant PDE4C1, below 50%; on Human recombinant PDE4D2, 50 to 80%. The EC50 at human wild type-CFTR [5] was 200 to 2000 nM.

For `CCOc1ccc(NC(=O)c2cc3nccc(-c4ccc(OC)nc4)n3n2)cc1` [Compound 323, N-(4-ethoxyphenyl)-7-(6-methoxypyridin-3-yl) pyrazolo[1,5-a]pyrimidine-2-carboxamide], the inhibition at 10 µM in data set [2] was below 50%; in data set [3], 50 to 80%; on Human recombinant PDE4C1, below 50%; on Human recombinant PDE4D2 it was below 50%. For the same compound, at human wild type-CFTR [5], the EC50 is at least 2000 nM.

`COc1ccc(-c2ccnc3cc(C(=O)N4CCN(C(=O)c5cccs5)[C@@H](C)C4)nn23)cc1OC` [Compound 352, (S)-(7-(3,4-dimethoxyphenyl)pyrazolo[1,5-a]pyrimidin-2-yl)(3-methyl-4-(thiophene-2-carbonyl)piperazin-1-yl) methanone]: the inhibition at 10 µM (in data set [2]; in data set [3]; at Human recombinant PDE4C1; at Human recombinant PDE4D2) was above 80% in each case. For the same compound, at human wild type-CFTR [5], the EC50 is below 200 nM.

`COc1ccc(-c2ccnc3cc(C(=O)N4CCN(S(=O)(=O)c5ccccc5)[C@@H](C)C4)nn23)cc1OC` [Compound 355, (S)-(7-(3,4-dimethoxy-phenyl)pyrazolo[1,5-a]pyrimidin-2-yl)(3-methyl-4-(phenylsulfonyl)piperazin-1-yl)methanone]: the inhibition at 10 µM (in data set [2]; in data set [3]; on Human recombinant PDE4C1; on Human recombinant PDE4D2) was above 80% throughout. For the same compound, the EC50 at human wild type-CFTR [5] is below 200 nM.

As for `COc1ccc(-c2ccnc3cc(C(=O)N4CCN(C(=O)c5ccccn5)[C@@H](C)C4)nn23)cc1OC` [Compound 380, (S)-(7-(3,4-dimethoxyphenyl)pyrazolo[1,5-a]pyrimidin-2-yl) (3-methyl-4-picolinoylpiperazin-1-yl)methanone], the inhibition at 10 µM is above 80% in data set [2], above 80% in data set [3], 50 to 80% on Human recombinant PDE4C1 and above 80% at Human recombinant PDE4D2. Also, at human wild type-CFTR [5], the EC50 is below 200 nM.

With `COc1ccc(-c2ccnc3cc(C(=O)N4CC[C@@H](NC(=O)c5ccccc5)C4)nn23)cc1OC` [Compound 384, (R)-N-(1-(7-(3,4-dimethoxyphenyl)pyrazolo[1,5-a]pyrimidine-2-carbonyl)pyrrolidin-3-yl)benzamide], the inhibition at 10 µM in data set [2] was above 80%; in data set [3], above 80%; at Human recombinant PDE4C1, 50 to 80%; at Human recombinant PDE4D2, above 80%. Further, the EC50 on human wild type-CFTR [5] is below 200 nM.
